Publication PMC60990 (BMC Microbiology, 2001)

Key:
PfPP5 [1] = target: T1, PfPP5 (Plasmodium falciparum, UniProt Q8WQR3); test: […]-phosphohistone dephosphorylation, phosphomolybdate extraction; format: biochemical; settings: activator, 32P-phosphohistone, pH 7.5, 37°C
T1 sequence (Q8WQR3 1-594): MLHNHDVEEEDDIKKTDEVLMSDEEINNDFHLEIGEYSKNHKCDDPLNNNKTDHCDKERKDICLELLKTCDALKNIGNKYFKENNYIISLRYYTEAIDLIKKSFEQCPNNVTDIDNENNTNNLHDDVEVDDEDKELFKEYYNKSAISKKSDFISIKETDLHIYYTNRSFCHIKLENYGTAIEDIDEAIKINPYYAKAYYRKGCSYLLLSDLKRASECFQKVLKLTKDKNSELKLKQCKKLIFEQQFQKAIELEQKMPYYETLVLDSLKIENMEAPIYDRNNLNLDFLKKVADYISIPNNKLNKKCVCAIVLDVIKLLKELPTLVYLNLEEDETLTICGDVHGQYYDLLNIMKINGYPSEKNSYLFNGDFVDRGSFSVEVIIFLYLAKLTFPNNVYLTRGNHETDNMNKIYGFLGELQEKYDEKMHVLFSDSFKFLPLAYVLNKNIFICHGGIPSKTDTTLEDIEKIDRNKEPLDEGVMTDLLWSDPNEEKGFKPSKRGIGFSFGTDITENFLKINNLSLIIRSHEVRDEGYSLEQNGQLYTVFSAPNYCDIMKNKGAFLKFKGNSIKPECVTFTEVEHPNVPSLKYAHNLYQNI

PfPP5 [2] = target: T1, PfPP5; test: as above; format: biochemical; settings: pH 7.5, 37°C

CCCCC/C=C\C/C=C\C/C=C\C/C=C\CCCC(=O)O [arachidonic acid]
fold stimulation of activity (PfPP5 [1]; about 70 μM fatty acid): ~ 3 fold

CCCCCCCC/C=C\CCCCCCCC(=O)O [oleic acid]
fold stimulation of activity (PfPP5 [1]; about 80 μM fatty acid): ~ 3 fold

CCCCCCCCCCCCCCCCCC(=O)O [stearic acid]
32P-phosphohistone dephosphorylation, phosphomolybdate extraction (PfPP5 [2]): stearic acid, a saturated fatty acid, did not appreciably stimulate PfPP5 activity
